The source of these data is PMC5054527, “Mechanism of high affinity inhibition of the human urate transporter URAT1” (Scientific Reports, 2016).

Changes are numbered by the printed parent chain. Where two headings read alike, the source gives them in different places.

The target of one test is T1, r-h TM1-C URAT1 chimera (Rattus norvegicus, UniProt Q3ZAV1, L29M/N35S/P27S/T32C/V31L).
T1 sequence (Q3ZAV1 1-553 P27S/L29M/V31L/T32C/N35S): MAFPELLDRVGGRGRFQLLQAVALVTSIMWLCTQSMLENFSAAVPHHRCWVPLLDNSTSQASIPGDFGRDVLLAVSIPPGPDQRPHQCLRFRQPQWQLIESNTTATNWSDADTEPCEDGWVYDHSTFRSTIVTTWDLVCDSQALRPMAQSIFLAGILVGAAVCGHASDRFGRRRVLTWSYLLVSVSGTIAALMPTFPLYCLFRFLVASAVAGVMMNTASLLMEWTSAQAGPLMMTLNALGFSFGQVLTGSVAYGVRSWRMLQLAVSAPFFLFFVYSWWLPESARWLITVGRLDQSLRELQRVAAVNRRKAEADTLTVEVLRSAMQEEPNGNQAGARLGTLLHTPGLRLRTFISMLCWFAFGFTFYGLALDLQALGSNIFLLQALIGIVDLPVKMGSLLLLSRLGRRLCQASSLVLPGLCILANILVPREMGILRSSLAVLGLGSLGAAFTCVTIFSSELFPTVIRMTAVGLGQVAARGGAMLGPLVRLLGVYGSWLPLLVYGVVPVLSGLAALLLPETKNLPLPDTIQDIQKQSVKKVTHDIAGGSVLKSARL
In words: URAT1 uric acid transport activity assay. The test is classed as cell-based, human/rat. The source says:
(§1) hURAT1 (GenBank BC053348.1) and rURAT1 (NCBI NM_001034943.1) genes were purchased from Origene Technologies, Inc. and subcloned into pCMV6/neo using NotI, creating pCMV6/neo-hURAT1 and pCMV6/neo-rURAT1. Mutants were produced by polymerase chain reaction (PCR) or site-directed mutagenesis using the QuikChange Lightning Multi Site-Directed Mutagenesis Kit (Agilent Technologies). […] Detailed methods are provided in Supplementary Methods, and primers are listed in Supplementary Table 1. […] Residues in rURAT1 and hOAT1 that correspond to the residues in hURAT1 were identified from aligned protein sequences (Supplementary Fig. 1)[50].
(§2) DNA (10 μg) was mixed with 30 μl of DreamFect Gold (Boca Scientific) in 2 ml OptiMem (Life Technologies). After 20 minutes, 18 ml of media containing 2 × 10^7 cells in suspension was added and mixed, and 200 μl per well were plated onto white clear-bottomed poly-D-lysine coated 96-well plates (BD Biosciences). The cells were assayed the following day.
(§3) Compounds were serially diluted into assay buffer and added to the cells for 5 minutes prior to addition of radiolabelled uric acid substrate. URAT1-expressing cells were incubated with 100 μM ^14C-uric acid for 10 minutes. […] Each treatment was measured in triplicate.
(§4) Unlabelled uric acid was prepared at a 20 mM stock just prior to use in a solution containing 20 mM dibasic potassium phosphate and 20 mM potassium hydroxide.
(§5) Nonlinear regression analyses using GraphPad Prism software were used to calculate the potency of URAT1 inhibitors (IC50 values) from log (inhibitor) versus response - variable slope (four parameters) equations. Statistical significance was assessed using Student’s unpaired t-tests.

A further test addresses T2, r-h TM1-N URAT1 chimera (Rattus norvegicus, UniProt Q3ZAV1, A21T/L18V/T26V/V22M/V25M).
T2 sequence (Q3ZAV1 1-553 L18V/A21T/V22M/V25M/T26V): T1 sequence (Q3ZAV1 1-553 P27S/L29M/V31L/T32C/N35S) with L18V, A21T, V22M, V25M, T26V, S27P, M29L, L31V, C32T, S35N
Nature of the test: URAT1 uric acid transport activity assay. It is filed as cell-based, human/rat.
Excerpt: as §1, §2, §3, §4, §5

The next test addresses T3, human URAT1 (Homo sapiens, UniProt Q96S37).
T3 construct: hURAT1 and rURAT1 are 553 amino acid proteins with 12 transmembrane segments; expressed in transfected cells; host or cells: URAT1-transfected cells (HEK-293T per the transfection section)
T3 sequence (Q96S37 1-553): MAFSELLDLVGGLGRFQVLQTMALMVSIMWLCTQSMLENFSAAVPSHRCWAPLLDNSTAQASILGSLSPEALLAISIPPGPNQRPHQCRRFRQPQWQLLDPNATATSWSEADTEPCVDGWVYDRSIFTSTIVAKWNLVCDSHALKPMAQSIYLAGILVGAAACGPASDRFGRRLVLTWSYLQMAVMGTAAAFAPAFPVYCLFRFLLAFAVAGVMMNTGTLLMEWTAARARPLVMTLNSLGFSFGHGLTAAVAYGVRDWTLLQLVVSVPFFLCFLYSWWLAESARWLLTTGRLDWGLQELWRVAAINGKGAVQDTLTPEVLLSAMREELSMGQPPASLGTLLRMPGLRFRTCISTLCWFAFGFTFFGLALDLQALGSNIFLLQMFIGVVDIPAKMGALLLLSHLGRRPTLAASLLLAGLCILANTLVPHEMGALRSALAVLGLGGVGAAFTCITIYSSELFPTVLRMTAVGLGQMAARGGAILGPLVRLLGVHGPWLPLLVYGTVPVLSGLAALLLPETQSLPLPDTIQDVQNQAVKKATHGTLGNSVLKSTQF
Nature of the test: ^3H-RDEA3170 URAT1 membrane binding assay. The note with it: human URAT1 membranes; 10 nM ^3H-RDEA3170. How it is done:
Membranes were prepared from URAT1-transfected cells. […] Cells were lysed with 100 strokes in a dounce homogenizer using a tight-fitting “B” stem. Lysates were transferred to 1.5 ml Eppendorf tubes and centrifuged at 250 rcf for 5 minutes at 2 °C, and supernatants were transferred to fresh tubes and centrifuged again at 18,000 rcf for 20 minutes at 2 °C. The pellets (membrane fractions) were resuspended in 1 ml of ice-cold binding buffer containing protease inhibitors and frozen at −80 °C. Protein was measured using the Bio-Rad protein assay dye reagent concentrate.
To initiate binding, membranes at 2.5 μg total protein were incubated with ^3H-RDEA3170 for 30 minutes at room temperature. […] The plates were then subjected to scintillation counting. All samples were assayed in triplicate.

The next test concerns hURAT1. To be noted: cited from earlier work.

`CCc1oc2ccccc2c1C(=O)c1cc(Br)c(O)c(Br)c1` [benzbromarone]: the values for the IC50 against r-h TM1-C URAT1 chimera, against r-h TM1-N URAT1 chimera and in the test on hURAT1 were 12 ± 0.78 µM, 16 ± 0.76 µM and […], respectively. Also, the “displacement of ^3H-RDEA3170 binding to hURAT1” value (“displacement” for short) on human URAT1 is recorded as “displace binding of the probe”.
In the case of `O=C(O)CSc1nnc(Br)n1-c1ccc(C2CC2)c2ccccc12` [lesinurad, 2-((5-bromo-4-(4-cyclopropylnaphthalen-1-yl)-4H-1,2,4-triazol-3-yl)thio)acetic acid], the IC50 on r-h TM1-C URAT1 chimera (r-h TM1-C, MES pH 5.5, 100 μM 14C-uric acid, read-out: IC50 (uric acid transport)) was determined as 17 ± 2 µM; on r-h TM1-N URAT1 chimera (r-h TM1-N, MES pH 5.5, 100 μM 14C-uric acid, read-out: IC50 (uric acid transport)), 40 ± 7 µM. In addition, the “displacement” value on human URAT1 was “displace binding of the probe”.
`O=C1C(CC[S+]([O-])c2ccccc2)C(=O)N(c2ccccc2)N1c1ccccc1` (centres unmarked) [sulfinpyrazone]: the IC50 came out at 25 ± 6.7 µM at r-h TM1-C URAT1 chimera (r-h TM1-C, HEPES pH 7.3, 100 μM 14C-uric acid, read-out: IC50 (uric acid transport)) and 12 ± 2.6 µM on r-h TM1-N URAT1 chimera (r-h TM1-N, HEPES pH 7.3, 100 μM 14C-uric acid, read-out: IC50 (uric acid transport)). In addition, at human URAT1, the “displacement” value was “displace binding of the probe”.
In the case of `O=c1[nH]c(=O)c2[nH]c(=O)[nH]c2[nH]1` [uric acid], the Km in the test with hURAT1 (read-out: Km for the substrate urate) is 371 µM.

As a reminder, the IC50 is the concentration at which inhibition is half-maximal. Usually Km stands for the concentration of substrate that gives half-maximal velocity.
